Laboratory results: PMC9139979, “Features of ZED1227: The First-In-Class Tissue Transglutaminase Inhibitor Undergoing Clinical Evaluation for the Treatment of Celiac Disease” (Cells, 2022)
Square brackets hold non-standard residues; d marks the D form. Peptide text beside a SMILES is read from it. * marks the point of attachment. Nle(5E-ene,6-CO2Et) = CCOC(=O)/C=C/CC[C@H](N)C(=O)O; DON = [N-]=[N+]=CC(=O)CC[C@H](N)C(=O)O; Cbz = O=C(OCc1ccccc1)*

Experiments:
[1] = target: T1, hTG2 (Homo sapiens, UniProt P21980); experiment: Fluorescent transamidation assay (DCC-assay), hTG2; format: biochemical; conditions: for IC50: recombinant human TG2, transamidation assay, apparent IC50 of irreversible inhibitor, read-out: App. IC50 hTG2; for Fold less potent compared to ZED1227 (hTG2): same transamidation assay
T1 construct: purchased Zedira T022
T1 sequence (P21980 1-687): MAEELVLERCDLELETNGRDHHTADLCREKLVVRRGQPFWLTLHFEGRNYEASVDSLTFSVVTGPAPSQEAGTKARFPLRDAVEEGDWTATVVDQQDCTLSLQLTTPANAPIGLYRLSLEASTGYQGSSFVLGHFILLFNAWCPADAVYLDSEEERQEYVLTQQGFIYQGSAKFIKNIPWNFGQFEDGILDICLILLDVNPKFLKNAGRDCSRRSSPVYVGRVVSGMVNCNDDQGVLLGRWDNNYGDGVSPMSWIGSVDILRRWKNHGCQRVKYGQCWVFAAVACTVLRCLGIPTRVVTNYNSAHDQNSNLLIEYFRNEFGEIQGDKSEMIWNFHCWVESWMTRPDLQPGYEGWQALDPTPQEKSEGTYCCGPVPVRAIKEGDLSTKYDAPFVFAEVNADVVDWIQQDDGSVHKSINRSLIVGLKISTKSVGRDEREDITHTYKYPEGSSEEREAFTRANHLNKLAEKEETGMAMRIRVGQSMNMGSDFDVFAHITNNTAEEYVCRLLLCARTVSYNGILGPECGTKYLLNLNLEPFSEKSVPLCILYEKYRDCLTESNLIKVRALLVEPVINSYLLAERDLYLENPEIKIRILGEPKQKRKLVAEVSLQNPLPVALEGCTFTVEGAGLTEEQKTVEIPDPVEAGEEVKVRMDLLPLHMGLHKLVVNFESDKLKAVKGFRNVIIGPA
Protocol: Inhibition data were determined using the fluorescent transamidation assay (dansylcadaverine incorporation into glutamine-donor substrate N,N-dimethyl casein, DCC-assay). Briefly, to 15 μL of ZED1227 solution (dissolved and serial diluted in 2% (v/v) DMSO/assay buffer), 285 μL assay buffer [47.5 mM tris(hydroxymethyl)aminomethane, 9.5 mM CaCl2, 9.5 mM glutathione, 2.4% (v/v) glycerol, 190 mM NaCl, pH 8.0] containing dansylcadaverine (15.9 μM), N,N-dimethyl casein (3.8 μM) and the indicated recombinant transglutaminase enzyme [0.95 μg/mL hTG1 (T035), 0.81 μg/mL hTG2 (T022), 0.83 μg/mL hTG6 (T021), all from Zedira] were added, mixed and the kinetic measurement started immediately. In the case of hFXIII-A2 (0.83 μg/mL, T027, Zedira), the assay buffer contained human α-thrombin (5.2 × 10^−3 U/μL, T056, Zedira). The mixture was incubated for 20 min at room temperature to activate FXIII. In the case of hTG3a (0.81 μg/mL, T013, Zedira), full enzymatic activity was obtained by incubation for 80 min at 37 °C in assay buffer before addition of the inhibitor and start of the kinetics.
Fluorescence emission was continuously monitored for 30 min at λem = 500 nm (λex = 330 nm) and 37 °C using a CLARIOstar fluorescence plate reader (BMG Labtech, Ortenberg, Germany). All measurements were performed in triplicate. The respective IC50 (and IC90 for TG2) values were calculated by non-linear regression using the MARS software package (BMG Labtech). An irreversible-acting inhibitor, such as ZED1227, should, correctly, be characterized by the second-order rate constant k2nd, as detailed by Keillor [46]. However, such data are rather abstract and difficult to comprehend.
To facilitate comparability during lead structure optimization and to roughly estimate concentrations needed at the target site, the apparent IC50 values (calculated by four-parameter non-linear fit by MARS software) for irreversible inhibitors are more instructive and are therefore reported. Further, we report the potency of commercially available reference inhibitors Z006 (“Z-DON”), Z013 (ZED754), and T101 (all Zedira). To gain deeper mechanistic insight, we discuss the second-order rate constants (k2nd) published for Z006 and ZED754 in relation to their respective IC50 values.

[2] = target: TG2; set-up: method as in PMID 32045569; conditions: TG2 catalyzed hydrolysis of Z-Glu(HMC)-Gly-OH at pH 6.5; cited from earlier work

Row | IC50 [1] [nM] | Compound | Fold less potent compared to ZED1227 (hTG2) [1] | Ki [2] [nM] | k2nd (second-order rate constant) [2]
1 | 1780 | CC(=O)CSc1n(C)c(C)c(C)[n+]1C.[Cl-] [T101] | 33 fold | – | –
2 | 70 | COC(=O)[C@H](CC(C)C)NC(=O)[C@@H]1CCCN1C(=O)[C@@H](NC(=O)[C@H](CCC(=O)C=[N+]=[N-])NC(=O)OCc1ccccc1)C(C)C [Z006, Z-DON-Val-Pro-Leu-OMe] (Cbz-[DON]VPL-OMe) | – | 96 | 191,000 M^−1s^−1

Row | Compound | IC50 [1] [nM] | Fold less potent compared to ZED1227 (hTG2) [1] | Ki [2] [nM] | k2nd (second-order rate constant) [2]
3 | CCOC(=O)/C=C/CC[C@H](NC(=O)OCc1ccccc1)C(=O)N[C@@H](CCC(N)=O)C(=O)N1CCC[C@H]1C(=O)N[C@@H](CC(C)C)C(=O)OC [ZED754] (Cbz-[Nle(5E-ene,6-CO2Et)]QPL-OMe) | 182 | about 3.5 fold | 450 | 51,500 M^−1s^−1
